From PubChem BioAssay (NCI)
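In this assay, cells in 96-well plates receive the compound at five concentrations for 48 hours. Endpoints are linearly interpolated between the surrounding concentrations. The concentration for full growth arrest is given as TGI.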

Experiments:
Assay in all cases: NCI tumour cell line growth inhibition, 48 h
[1] = tested on: DLD-1 colon
[2] = tested on: SW-620 colon
[3] = tested on: KM20L2 colon
[4] = tested on: A549 NSCLC
[5] = tested on: U251 CNS
[6] = tested on: UO-31 renal
[7] = tested on: SK-MEL-5 melanoma
[8] = tested on: M14 melanoma
[9] = tested on: SK-MEL-28 melanoma
[10] = tested on: MDA-MB-435

Row | SMILES | TGI [1] | TGI [2] | TGI [3] | TGI [4] | TGI [5] | TGI [6] | TGI [7] | TGI [8] | TGI [9] | TGI [10]
1 | C=CCCn1nc(-c2ccccc2)oc1=O | > 100 µM | > 100 µM | > 100 µM | > 100 µM | > 100 µM | > 100 µM | > 100 µM | > 100 µM | > 100 µM | 
2 | CC1(C)C(=O)/C=C\C(=O)C(C)(C)C2=CC=C(O2)C(C)(C)C(=O)C(Br)C(Br)C(=O)C(C)(C)C2=CC=C1O2 (configuration not stated) | 87.2 µM | 31.1 µM | > 100 µM | > 100 µM | > 81.8 µM | > 100 µM | > 100 µM | > 87 µM | > 100 µM | > 100 µM
3 | COc1ccc(/C=C/c2onc3c(=O)n(C)nc(-c4ccccc4)c23)cc1 | > 100 µM | > 100 µM | > 100 µM | > 100 µM | > 100 µM | > 100 µM | > 100 µM | > 100 µM | > 100 µM | 
4 | O=CCCn1[nH]c(=O)ccc1=O | > 100 µM | > 100 µM | > 100 µM | > 100 µM | > 100 µM | > 100 µM | > 100 µM | > 100 µM | > 100 µM | 
5 | O=C(O)c1cnc2c(ccc3[nH]cccc32)c1=O | > 100 µM | > 100 µM | > 100 µM | > 100 µM | > 100 µM | > 100 µM | > 100 µM | > 100 µM | > 100 µM | 
6 | O=CN/C=C/c1ccccc1 | > 100 µM | > 85.6 µM | > 100 µM | > 100 µM | > 100 µM | > 100 µM | > 100 µM | > 100 µM | > 100 µM | 
7 | O=S1Nc2cccc(C(F)(F)F)c2S1 (configuration not stated) | > 100 µM | 23.8 µM | > 100 µM | > 100 µM | > 100 µM | > 100 µM | > 100 µM | > 100 µM | > 100 µM | 
8 | O/N=C1/CCCC/C1=C\c1ccc(Cl)c(Cl)c1 | > 100 µM | > 100 µM | 43.4 µM | > 100 µM | 38.9 µM | 46.2 µM | 35.6 µM | 82.9 µM | > 100 µM | 
9 | COc1ccc(C2(Cl)C(Cl)(C(F)(F)F)C2(Cl)C(F)(F)F)cc1 (configuration not stated) | 29.4 µM | 33.1 µM | 28.9 µM | 28.1 µM | 28.2 µM | 29.5 µM | 22.1 µM | 24.2 µM | 29 µM | 
